From publication PMC11181081 (Proceedings of the National Academy of Sciences of the …, 2024) come the findings set out here.

In test [1] the test system is ER-regulated genes PGR, GREB1, TFF1/pS2. Kind of test: qPCR of ER target genes in MCF-7 cells. It is filed as cell-based. Conditions: MCF-7 in normal FBS-containing media, ~1 pM E2. (Quantitative PCR measures a nucleic acid by following its amplification.)
In test [2] the test system is primary female mouse myotubes. Kind of test: Primary myotube size by high-content imaging. In kind it is cell-based. Conditions: 50 pM, 5 d.
Test [3] concerns Greb1 expression. Kind of test: Greb1 qPCR in primary myotubes. In kind it is cell-based, mouse. The conditions noted are these: steroid-free conditions, 24 h.
The subject of test [4] is MCF-7 WT cells. Briefly: Cell proliferation assay, MCF-7 WT. Conditions: MCF-7 with ER-WT, charcoal-stripped FBS, 5 d.

SMILES strings stand for the structures.

For the compound `C[C@]12CC[C@@H]3c4ccc(O)cc4CC[C@H]3[C@@H]1CC[C@@H]2O` [Compound E2, 17β-estradiol], the “Gene expression profile in full media (in words)” value in test [1] is recorded as “less induction of gene expression”. Also, the “Myotube diameter / tube area (in words)” value in test [2] is “maintained primary myotube diameter”. For the same compound, in test [3], the “Greb1 expression dose response (in words)” value is “biphasic with an inflection point below the ligand Kd”. The “Effect on proliferation (activity profile, in words)” value in test [4] is “induced cell growth at doses 2 logs below the Kd”.
